Columns and labels:
[1] = system: GABAA receptors; experiment: Electrophysiology assay (two-electrode voltage clamp, Xenopus oocytes expressing GABAA receptors); format: cell-based; conditions: positive (Pos) or negative (Neg) modulation of current at GABA EC20, screening concentration of 10 μM
Description: The modulation of GABAA function is determined by changes in current as determined in an electrophysiology assay, as is detailed below.
mRNA was prepared from lyophilized plasmid pellets containing cDNA inserts encoding the specific GABAA receptor subunit. cDNAs encoding the α2, α3, and γ3 subunits were subcloned into pBluescript, SK^−. cDNAs encoding the a 1 and a 5 subunits were subcloned into prC while cDNA encoding the β2 subunit was subcloned into pcDNA1. The cDNA construct encoding the g 2s subunit is in the pGH19 expression construct. Overnight cultures of transformed DH5a bacterial cells were performed to grow sufficient quantities for maxiprep isolation of the plasmid cDNA. The resulting plasmid cDNA was linearized by digestion with an appropriate restriction enzyme that cleaves distal to the cDNA insert [XbaI (α1, β2), NotI (α3, γ2 s), SacII (α2), or ApaI (α5)]. Following digestion, plasmid cDNA was treated with proteinase K and extracted with phenol/chloroform/isoamyl alcohol, followed by ethanol precipitation. cDNA quality was assessed by agarose-gel electrophoresis (1.5% agarose gel). Samples were stored at −20° C. until use. In vitro transcription was performed with T7 RNA polymerase. mRNA was then stored at −80° C. until use. Plasmids were linearized with appropriate restriction enzymes before in vitro transcription using the Message Machine kit (Ambion, Austin, Tex.).
GABAA receptor expression in Xenopus oocytes: Following 45 min of 0.15% Tricaine anesthesia, an ovarian section containing the follicular oocytes was removed from the frog through a lateral abdominal incision. Oocytes were immediately placed in a calcium-free solution (NaCl 96 mM, MgCl2 1 mM, KCl 2 mM, Hepes 50 mM, pyruvate 2.5 mM, gentamycin 100 μg/mL, penicillin-streptomycin 50 U/mL, pH 7.4). Following 1.5-2 hour incubation in 0.2% collagenase (type II, Sigma Chemical Co., St. Louis, Mo.) at room temperature, individual Dumont stage V and VI oocytes were transferred to an incubator and maintained overnight in Barth's solution (NaCl 84 mM, NaHCO3 2.4 mM, MgSO4 0.82 mM, KCl 1 mM, Ca(NO3)2 0.33 mM, CaCl2 0.41 mM, Tris/HCl 7.5 mM, pyruvate 2.5 mM, gentamycin 50 μg/mL, penicillin-streptomycin, 100 units/mL, pH 7.4) at 18-20° C. and used for experiments 1-5 days post-injection. Oocytes were injected solution using an electronic microinjector (Drummond, Broomall, Pa.) with 50 nL of RNA containing 0.3-0.5 ng of each subunit RNA in a 1:1:2 ratio. The injected oocytes were used for experiments after 1-5 days of incubation in Barth's solution at 18-20° C.
Measurements of ion currents from oocytes expressing GABAA receptors were performed using a Warner two-electrode voltage-clamp amplifier (Warner Instruments, Inc., Foster City, Calif.) (Park-Chung, M. A., et al. (1999) Brain Res. 830: 72-87 incorporated herein in its entirety). Microelectrodes were fabricated from borosilicate glass capillaries with a programmed pipette puller (Sutter Instrument Co., CA). Microelectrode resistance was 1-3 MΩ when filled with 3 M KCl. The oocyte recording chamber was continuously perfused with ND-96 solution. Oocytes were clamped at a holding potential of −70 mV during data acquisition. The membrane current was filtered at 10 Hz and sampled at 100 Hz. Compounds were applied by a gravity-driven external perfusion system. The working volume of the recording chamber was […] and the rate of the perfusion was approximately […]. Compound application was 20-25 sec followed by a minimum of 150 sec wash. Data acquisition and external perfusion was computer controlled by custom-developed software. All experiments were performed at room temperature (22-24° C.). Dose-response data from each oocyte were fitted to the Hill equation by non-linear regression using the equation: IGABA=Emax/(1+(EC50/c)nH)
Emax is the maximum response, EC50 is the concentration producing 50% of the maximal response, nH is the Hill coefficient and c is the concentration of agonist. […]

[2] = target: GABAA central benzodiazepine receptor; experiment: Benzodiazepine binding assay ((3H)-flunitrazepam displacement); conditions: read-out: BZ binding assay (IC50); rat whole brain (except cerebellum), 1 nM (3H)-flunitrazepam, 60 minutes at 25° C.; 3-concentration dose response curve

| EP Result [1] | IC50 [2] [µM] | SMILES |
| --- | --- | --- |
| Pos | < 1 | CN1CCN(c2c(F)cc3c4nn(-c5ccccc5)c(=O)c-4c[nH]c3c2F)CC1 [44b, 6,8-Difluoro-7-(4-methyl-piperazin-1-yl)-2-phenyl-2,5-dihydro-pyrazolo [4,3-c]quinolin-3-one] |
| Pos | < 1 | O=c1c2c[nH]c3c(F)c(N4CCOCC4)c(F)cc3c-2nn1-c1ccccc1 [44c, 6,8-Difluoro-7-(morpholin-4-yl)-2-phenyl-2,5-dihydro-pyrazolo[4,3-c]quinolin-3-one] |
| Pos | < 1 | COc1ccc(-n2nc3c4cc(F)c(N5CCN(C)CC5)c(F)c4[nH]cc-3c2=O)cc1 [44d, 6,8-Difluoro-2-(4-methoxyphenyl)-7-(4-methylpiperazin-1-yl)-2,5-dihydro-pyrazolo[4,3-c]quinolin-3-one] |
